Experimental data taken from ChEMBL document CHEMBL1201862, “PubChem BioAssay data set” (2004).
Values belong to the molecule of their own block, whether it stands above or below them. Activity calls are given as the source filed them.

What was measured:
[1] = HepG2 cell cytotoxicity, dose response, cytotoxicity control, cherry-picked samples (AID 1159577); type: functional, cell-based
Paired box protein Pax-8 = Paired box protein Pax-8 (Homo sapiens, UniProt Q06710); experiment: inhibitors of PAX8-driven TPO luciferase reporter, dose response, RMG-I cells, cherry-pick (AID 687027); type: functional, cell-based;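 further: luciferase reporter driven by Pax8 target thyroperoxidase promoter measured by SteadyGlo luminescence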
[2] = IOSE-T80 ovarian epithelial cell cytotoxicity, dose response, cytotoxicity control for PAX8 inhibitor project, plate reader, dry powder samples (AID 743045); type: functional, cell-based
[3] = A2780 ovarian cancer cell cytotoxicity, dose response, cytotoxicity control, plate reader, dry powder samples (AID 743046); type: functional, cell-based
[4] = cytotoxicity in OVCAR8 ovarian cancer cells, dose response, PAX8 project, cell-based, plate reader, dry powder samples (AID 743197); type: functional; settings: OVCAR-8
[5] = P. falciparum Dd2 growth inhibitors, dose response, SYBR Green, cherry-picked samples (AID 1159567); type: functional, cell-based
[6] = NIH:OVCAR-3 ovarian cancer cell cytotoxicity, dose response, PAX8 inhibitor project, plate reader, dry powder samples (AID 743044); type: functional, cell-based
[7] = non-specific cell cytotoxicity, dose response, cytotoxicity control for PAX8 inhibitor project, plate reader, dry powder samples (AID 743021); type: functional, cell-based
[8] = IGROV1 ovarian cancer cell cytotoxicity, dose response, PAX8 inhibitor project, plate reader, dry powder samples (AID 743043); type: functional, cell-based; settings: IGROV-1
[9] = inhibitors of PGC1a acetylation in cells, dose response, cell-based, cherry-picked samples (AID 720514); type: functional;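 further: potency may reflect raised or lowered acetylation signal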
[10] = Late stage assay provider results from the probe development effort to identify inhibitors of the Plasmodium falciparum M18 Aspartyl Aminopeptidase (M18AAP): radiolabel-based cell-based dose response assay to identify compounds that inhibit P. falciparum growth in RBCs, Set 2..; type: functional
[11] = A549 cell cytotoxicity, dose response, cytotoxicity control, 24 h, CellTiter-Glo luminescence, cherry-picks (AID 1053115); type: functional, cell-based; settings: A549, 24 h
[12] = target: T1, Carboxy-terminal domain RNA polymerase II polypeptide A small phosphatase 1 (Homo sapiens, UniProt Q9GZU7); experiment: inhibitors of CTDSP1, concentration-response testing, biochemical assay, absorbance-based, actives from ultra-high-throughput screening (AID 540297); type: functional
T1 sequence (Q9GZU7 whole entry): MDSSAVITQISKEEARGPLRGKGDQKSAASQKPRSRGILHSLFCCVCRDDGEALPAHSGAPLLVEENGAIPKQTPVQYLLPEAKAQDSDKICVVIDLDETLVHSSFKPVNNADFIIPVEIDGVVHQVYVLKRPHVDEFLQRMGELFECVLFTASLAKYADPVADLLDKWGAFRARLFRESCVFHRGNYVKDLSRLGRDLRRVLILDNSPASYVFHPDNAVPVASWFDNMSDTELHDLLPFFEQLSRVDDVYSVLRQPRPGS

Estrogen receptor beta = Estrogen receptor beta (Homo sapiens, UniProt Q92731);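 further: recombinant ER-beta bound to coactivator SRC1 peptide in presence of estradiol agonist; inhibitors block coactivator peptide binding and lower the FRET signal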
[13] = target: Induced myeloid leukemia cell differentiation protein Mcl-1 (Homo sapiens, UniProt Q07820); type: functional
[14] = Artemis endonuclease inhibitor potency, dose response, biochemical, fluorescence intensity (AID 720701); type: functional;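 further: Artemis endonuclease enzyme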
[15] = target: RNA-editing ligase 1, mitochondrial (Trypanosoma brucei brucei, UniProt P86926); experiment: TbREL1 ligase inhibitors, dose response, biochemical, fluorescence, Trypanosoma brucei (AID 1117295); type: functional
[16] = target: G-protein coupled receptor 183 (Homo sapiens, UniProt P32249); experiment: SAR confirmation of small molecule antagonists of the EBI2 receptor via a luminescent beta-arrestin assa.; type: functional
[17] = target: T2, Low molecular weight phosphotyrosine protein phosphatase (Homo sapiens, UniProt P24666); experiment: LMPTP phosphatase inhibitors, dose response, biochemical, OMFP substrate, fluorescence intensity, set 2 (AID 743307); type: functional
T2 sequence (P24666 whole entry): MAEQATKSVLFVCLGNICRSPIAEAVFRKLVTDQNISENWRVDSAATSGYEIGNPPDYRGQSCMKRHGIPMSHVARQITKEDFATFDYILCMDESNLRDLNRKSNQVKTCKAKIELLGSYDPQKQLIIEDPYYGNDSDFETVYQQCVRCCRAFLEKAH

[18] = target: T2, Low molecular weight phosphotyrosine protein phosphatase; experiment: LMPTP phosphatase inhibitors, colorimetric pNPP readout, dose response, orthogonal assay, biochemical, absorbance, pNPP substrate, LMPTP-A isoform, set 2 (AID 743308); type: functional
[19] = P. falciparum Dd2 blood-stage growth inhibition, dose response, SYBR Green fluorescence, erythrocytes, dry powder, set 2 (AID 1159574); type: functional, cell-based

Chain of G-protein coupled receptor 183 (P32249 whole entry): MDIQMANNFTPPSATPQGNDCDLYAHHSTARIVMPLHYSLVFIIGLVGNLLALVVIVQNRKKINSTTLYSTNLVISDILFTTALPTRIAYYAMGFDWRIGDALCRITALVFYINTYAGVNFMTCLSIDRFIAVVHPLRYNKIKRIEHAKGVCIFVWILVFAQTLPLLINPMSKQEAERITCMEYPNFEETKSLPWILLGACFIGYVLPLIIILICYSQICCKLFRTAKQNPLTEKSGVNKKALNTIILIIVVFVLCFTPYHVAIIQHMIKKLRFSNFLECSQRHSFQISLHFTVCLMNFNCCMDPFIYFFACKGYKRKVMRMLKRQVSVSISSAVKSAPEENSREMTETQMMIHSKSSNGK
Chain of RNA-editing ligase 1, mitochondrial (P86926 whole entry): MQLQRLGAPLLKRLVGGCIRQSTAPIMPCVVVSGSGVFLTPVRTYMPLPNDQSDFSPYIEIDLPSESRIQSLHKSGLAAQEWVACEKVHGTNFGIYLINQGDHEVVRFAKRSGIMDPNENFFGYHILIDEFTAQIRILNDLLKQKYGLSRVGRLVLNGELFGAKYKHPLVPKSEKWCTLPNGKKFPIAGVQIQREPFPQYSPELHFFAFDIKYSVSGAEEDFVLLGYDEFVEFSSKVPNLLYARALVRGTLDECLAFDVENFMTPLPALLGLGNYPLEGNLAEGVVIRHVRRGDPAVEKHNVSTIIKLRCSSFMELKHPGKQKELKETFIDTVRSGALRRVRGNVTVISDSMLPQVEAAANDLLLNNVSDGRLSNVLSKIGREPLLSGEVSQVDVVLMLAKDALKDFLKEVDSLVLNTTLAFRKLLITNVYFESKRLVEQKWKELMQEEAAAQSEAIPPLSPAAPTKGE
Chain of Induced myeloid leukemia cell differentiation protein Mcl-1 (Q07820 whole entry): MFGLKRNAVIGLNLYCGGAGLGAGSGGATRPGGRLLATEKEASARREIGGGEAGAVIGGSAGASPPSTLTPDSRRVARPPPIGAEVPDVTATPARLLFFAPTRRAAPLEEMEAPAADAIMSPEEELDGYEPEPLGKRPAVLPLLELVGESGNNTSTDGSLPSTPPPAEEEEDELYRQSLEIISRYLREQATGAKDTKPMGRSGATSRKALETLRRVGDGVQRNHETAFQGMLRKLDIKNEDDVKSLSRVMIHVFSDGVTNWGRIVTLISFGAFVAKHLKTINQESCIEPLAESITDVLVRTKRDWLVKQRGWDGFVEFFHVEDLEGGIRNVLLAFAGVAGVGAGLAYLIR
Chain of Estrogen receptor beta (Q92731 whole entry): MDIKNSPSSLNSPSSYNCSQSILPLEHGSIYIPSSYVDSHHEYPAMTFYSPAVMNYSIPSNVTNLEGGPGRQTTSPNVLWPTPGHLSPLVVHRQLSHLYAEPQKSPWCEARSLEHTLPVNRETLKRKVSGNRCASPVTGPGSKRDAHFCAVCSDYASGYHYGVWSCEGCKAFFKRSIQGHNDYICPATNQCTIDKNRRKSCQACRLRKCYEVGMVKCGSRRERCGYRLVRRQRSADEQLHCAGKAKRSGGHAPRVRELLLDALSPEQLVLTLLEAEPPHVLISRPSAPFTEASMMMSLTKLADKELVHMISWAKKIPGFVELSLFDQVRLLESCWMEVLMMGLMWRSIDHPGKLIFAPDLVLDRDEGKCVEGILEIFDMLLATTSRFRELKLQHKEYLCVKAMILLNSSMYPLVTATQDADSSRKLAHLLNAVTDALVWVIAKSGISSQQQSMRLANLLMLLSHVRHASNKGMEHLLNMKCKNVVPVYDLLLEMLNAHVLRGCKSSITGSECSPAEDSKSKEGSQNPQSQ
Chain of Paired box protein Pax-8 (Q06710 whole entry): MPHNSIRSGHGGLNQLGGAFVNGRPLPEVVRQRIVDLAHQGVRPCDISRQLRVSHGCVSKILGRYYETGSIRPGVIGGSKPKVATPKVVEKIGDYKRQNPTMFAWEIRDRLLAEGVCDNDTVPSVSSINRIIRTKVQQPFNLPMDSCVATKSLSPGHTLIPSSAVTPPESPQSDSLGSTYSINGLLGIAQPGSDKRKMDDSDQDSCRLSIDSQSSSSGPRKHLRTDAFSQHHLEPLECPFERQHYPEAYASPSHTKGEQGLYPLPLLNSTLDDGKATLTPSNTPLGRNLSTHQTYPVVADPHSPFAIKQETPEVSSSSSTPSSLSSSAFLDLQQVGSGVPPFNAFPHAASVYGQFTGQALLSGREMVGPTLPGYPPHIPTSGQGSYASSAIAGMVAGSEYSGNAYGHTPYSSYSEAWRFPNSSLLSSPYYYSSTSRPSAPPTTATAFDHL

Compound: COc1ccc(C#Cc2ccc([C@H]3[C@@H](CO)N4CCCCN(C(=O)Nc5cccc(F)c5)C[C@H]34)cc2)cc1
AC50 [1]: 7.31 µM (active)
AC50 (Paired box protein Pax-8): 10.9 µM (active)
AC50 [2]: 32.3 µM (active)
AC50 [3]: 12.2 µM (active)
AC50 [4]: > 70 µM (inactive)
AC50 [5]: 1.28 µM (active)
AC50 [6]: 10 µM (active)
AC50 [7]: 32.1 µM (active)
AC50 [8]: 21.1 µM (active)

Compound: COc1cc(CN2C[C@@H]3N[C@H](C2)[C@@H]3c2ccc(-c3cccc(OC)c3)cc2)cc(OC)c1
AC50 [9]: 9.18 µM (active)

Compound: O=c1ccn(CCNc2c3ccccc3nc3ccccc23)cc1OCc1ccccc1
IC50 [10]: 4.7 µM (active)

Compound: OC[C@@H]1Nc2ccc(-c3cccc(F)c3)cc2[C@@H]2[C@H]1CCN2Cc1ccc(F)cc1
AC50 [1]: 17.8 µM (active)
AC50 [11]: 52 µM (active)
AC50 [5]: 5.68 µM (active)

IC50 [12]: 10.1 µM (active)
IC50 (Estrogen receptor beta): > 50 µM (not active)
IC50 [13]: 4.9 µM (active)
IC50 [14]: 18.5 µM (active)
Compound: Cc1nc2c(c(=O)n1CCC1=CCCCC1)c1nc3ccccc3nc1n2/N=C/c1ccco1

IC50 [15]: > 96.6 µM (inactive)
Compound: COC(=O)C1=C(C)N(Cc2ccccc2C(F)(F)F)C(NCc2ccc(OC)cc2)=NC1c1ccccc1 (stereo not drawn)

IC50 [16]: 0.0497 µM (active)
Compound: O=C(/C=C/c1ccc(F)cc1)N1CCN(S(=O)(=O)c2cccc3ccccc23)CC1

IC50 [17]: 1.84 µM (active)
IC50 [18]: 4 µM (active)
Compound: Fc1cccc(-c2cc(NCCCN3CCCCC3)c3ccccc3n2)c1

Compound: COc1ccc(S(=O)(=O)N(C)C[C@@H]2OCc3ccccc3-c3c(n(C)c4ccccc34)C(=O)N([C@@H](C)CO)C[C@H]2C)cc1
AC50 [19]: 2.27 µM (active)
